Measurements from patent publication EP2292225A1 (priority 1997, dated 1998).
Read-outs that look alike come from different tables or passages of the source.

Experiments:
left carotid artery [1] = tested on: left carotid artery
[2] = tested on: Vascular smooth muscle (BO54) cells; assay type: cell-based, baboon
[3] = mouse, in vivo
swine coronary arteries = assay: Dose-response study of balloon traumatized coronary arteries (morphometry); assay type: in vivo
[4] = Chronic (seven days) intravenous toxicity study; assay type: in vivo, Sprauge-Dawley rats; conditions: 10080 min
Protocol: To determine the toxicity of chronic cytochalasin B administration, cytochalasin B was administered intravenously to Sprauge-Dawley rats for seven days (Table 12). Data regarding food consumption, body weights, hematology parameters, clinical chemistry parameters, coagulation profiles, organ weights, clinical observations, gross necropsy findings and histopathology were collected. […]

[5] = tested on: Vascular smooth muscle cells (BO54); assay: Scratch assay of smooth muscle cell migration; assay type: cell-based, baboon; set-up: key: - = no toxicity; +1 = minimal; +2 = mild; +3 = moderate; +4 = marked toxicity; conditions: Day 1/3/6/8/10 = r6/r8/r10/r12/r14
Protocol: Scratch assays to determine the extent of smooth muscle cell migration inhibition by cytochalasin B were performed in accordance with the following protocol: • Vascular smooth muscle cells (BO54) were derived from explants of baboon aortic smooth muscle, as described in Example 10. The cells were grown in flat bottom, six well tissue culture plates, which hold about 5 ml of medium. The vascular smooth muscle cells were plated at 200,000 cells/well and placed at 37°C in a humidified 5% CO2 incubator for 18 hours. The wells were then scratched with a sterile portion of a single edge razor blade that was held by clamp or pliers and was brought aseptically into contact with the bottom of the well at a 90° angle. The cells from a small area along the scratch were removed by a sterile cotton tipped applicator while the blade was in contact with the bottom of the well. After incubation, the presence of cells in the "scratched" area is indicative of cell migration across the scratch line.
Briefly, a stock solution of cytochalasin B (Sigma Chemical Co.) in dimethyl sulfoxide (DMSO) at 1 mg/ml was prepared. Test dilutions of cytochalasin B or control medium were added. Each experiment included two sets of plates: A set: Test agent exposure for 1, 3, 6, 8 and 10 days only; and B set: Test agent exposure for 1, 3, 6, 8 and 10 days, followed by a seven day recovery time with control medium. Both sets of plates were fixed (10% formalin in PBS) and stained (0.02% crystal violet) at the end of the timed exposures. Test concentrations for cytochalasin B were 1, 0.1 and 0.01 µg/ml, and a negative medium control was included. Fresh medium and drug were supplied 3 times per week.
In this Table, "M" indicates Migration Grade, wherein - = no migration; +1 = minimal; +2 = mild; +3 = moderate; and +4 = marked (maximum density; limit of cell contact inhibition) migration of vascular smooth muscle cells into the cleared area adjacent to the scratch. In this Table, "T" denotes a morphological Toxicity Grade, wherein - = no toxicity; +1 = minimal; +2 = mild; +3 = moderate; and +4 = marked toxicity. The migration results are expressed as "Grade in the Cleared Area of the Well / Grade in an Undisturbed Region of the Well." The toxicity values represent a grade for all cells in each well.

[6] = tested on: Vascular smooth muscle (BO54) cells; assay type: cell-based, baboon; remark: listed apart in the source
[7] = tested on: vascular smooth muscle cells; assay type: in vivo, pig; conditions: 4 days post-trauma
left carotid artery [8] = assay: Inter-arterial infusion of crystals after balloon trauma (scintillation, autoradiography, morphometry); assay type: in vivo, Sprague-Dawley rats; conditions: for present over the treated length of artery: 1 mg crystalline in 300 ml vehicle
Protocol: Another study employed twenty, male, Sprague-Dawley rats. The rats underwent balloon trauma to their left carotid artery, followed by inter-arterial infusion of a solution containing 1 mg crystalline cytochalasin B in […] vehicle (Hanks sterile salt solution with 0.5% Cremophor) or a diluent (saline) control. Animals were sacrificed immediately after infusion, and 2, 4, 7 and 14 days post-trauma and infusion. Post-sacrifice, the left and the right (control) carotid arteries were removed. Samples of arteries were obtained for quantitation of ^3H-cytochalasin B by oxidation and scintillation counting, histopathology, autoradiography and vascular morphometry. Histopathology documented uniform, circumferential balloon trauma in the arterial wall of the left carotid arteries.

[9] = Seven day intravenous toxicity study; assay type: in vivo, beagle dogs; conditions: seven consecutive days, 10080 min

## C=C1[C@@H](C)[C@H]2[C@H](Cc3ccccc3)NC(=O)[C@]23OC(=O)/C=C/[C@H](O)CCC[C@@H](C)C/C=C/[C@H]3[C@@H]1O [cytochalasin B]
Left carotid artery [1]; 14 days, periadventitial crystals
  morphometry compared to untreated control animals: no statistical difference from the controls
Left carotid artery [1]; periadventitial crystals: cytochalasin B 7.8 - 11.8 mg/rat, taxol 3.4 - 6.5 mg/rat
  toxicity at the surgical site: significant toxicity at the surgical site
[2]; 5 minute exposure
  minimum effective dose (MED), protein synthesis assay: 10 µg/mL
[2]; 24 hour exposure
  minimum effective dose (MED), protein synthesis assay: 1.0 µg/mL
[3]
  levels in tissues: very low levels
[3]; iv, 3.5 mg/kg
  maximal recovery from tissue extracts: 32%
Swine coronary arteries; 0.1 µg/mL, 4 Days Post Surgery
  Mean % Lumen Area: 97.0%
Swine coronary arteries; 1.5 µg/mL, 4 Days Post Surgery
  Mean % Lumen Area: 101.7%
Swine coronary arteries; 1.5 µg/mL, 21 Days Post Surgery
  Mean % Lumen Area: 100.9%
Swine coronary arteries; 10µg/mL, 4 Days Post Surgery
  Mean % Lumen Area: 103.9%
Swine coronary arteries; 10 µg/mL, 21 Days Post Surgery
  Mean % Lumen Area: 110.9%
Swine coronary arteries; 0.1, 1.5 or 10.0 µg/ml
  myocardial or arterial lesions (histology): did not result in myocardial or arterial lesions
Swine coronary arteries; 0.1 µ/mL, 21 Days Post Surgery
  Mean % Lumen Area: 98.0%
[4]
  dose without any indication of adverse effects or toxicity: up to 600 µg/kg/day
[5]; 7-day Recovery Post Exposure, 0.01 µg/mL
  morphological Toxicity Grade: -
[5]; 7-day Recovery Post Exposure, 0.1 µg/mL
  morphological Toxicity Grade: -
[5]; Continuous Exposure, 0.1 µg/mL, listed as CY[…]
  morphological Toxicity Grade: -
[5]; Continuous Exposure, 1.0 µg/mL, listed as CY[…]
  morphological Toxicity Grade: +4
[6]; 5 minute exposure
  minimum effective dose (MED), DNA assay: 10 µg/mL
[6]; 24 hour assays, 5% FBS
  therapeutic range (area under the curve of ^3H-leucine assay greater than ^3H-thymidine assay): available therapeutic range
[6]; 24 hour exposure
  minimum effective dose (MED), DNA synthesis assay: 0.1 µg/mL
[7]
  BRDU labeling grade: 4 (4 = > 10/HPF)
Left carotid artery [8]; crystalline, inter-arterial infusion
  neointima formation compared to diluent treated rats: no statistically significant reduction in neointima formation
Left carotid artery [8]; day 0
  present over the treated length of artery: approximately 8 ug
Left carotid artery [8]; day 2
  present over the treated length of artery: less than 2 ng
[9]
  dose without any indication of adverse effects or toxicity: up to 648 µg/kg/day
